Data taken from US20030187003A1, “Pharmaceutical compositions and method for the treatment of retroviral infections” (priority 2000, published 2003).

What was measured:
HIV-1 L6 = type: cell-based; settings: L6 versus wild type strain L1
HIV-1(IIIB) = experiment: inhibition of virus-induced cytopathicity in MT-4 cells, HIV-1 (IIIB); type: cell-based; settings: for EC50: MT-4 cells, viral cytopathic effect, 5 days post-infection
HIV-2 (EHO) = experiment: inhibition of virus-induced cytopathicity in MT-4 cells, HIV-2 (EHO); type: cell-based; settings: Human immunodeficiency virus 2, MT4, 120 h, read-out: EC50 HIV-2 EHO
HIV-1 NL43/DS5000 = experiment: microbe, parasite or virus in culture; type: cell-based
[1] = tested on: HIV-1-derived vectors pseudotyped with the VSV-G envelope; experiment: microbe, parasite or virus in culture; type: cell-based; settings: Human immunodeficiency virus 1, HEK-293T, read-out: EC50 inhibition of transduction
[2] = cytotoxicity, viability of mock-infected cells; type: cell-based; settings: human, viability of mock-infected MT-4 cells
Procedure: Cytotoxicity of these compounds was determined in parallel by measuring the viability of mock-infected MT-4 or C8166 cells 5 days post-infection. The antiviral activity and cytotoxicity data, including average values and standard deviations for at least two separate experiments, are depicted in Table 2, wherein: CC50 represents the 50% cytotoxic concentration, i.e. the concentration that reduces by 50% the viability of MT-4 cells.

HIV-1 integrase = target: T1, HIV-1 integrase (Human immunodeficiency virus type 1 group M subtype B, UniProt P04585); experiment: HIV-1 integrase binding assay, biosensor (BIAcore); settings: preincubation of integrase with 93 μM compound, 37° C.
T1 construct: HIV-1 integrase (100 μl of a 33 μM solution)
Procedure: Binding experiments were carried out using biosensor technology on BlAcore2000 (Biacore) and sensor chips SA™ with pre-immobilized streptavidin. The binding experiment was carried out at 37° C. following the procedures of the manufacturer. The binding buffer B (20 mM HEPES at pH 7.5) contained 50 mM NaCI, 10 mM MgCl2 and 5 mM DTT. First, the 3′-biotinylated oligonucleotide 5′-[…]-3′ was bound to the sensor chip. Subsequently, the complementary 35-mer 5′-[…]-3′ was hybridized to the captured oligonucleotide, resulting in an integrase recognition sequence at the free end. HIV-1 integrase (100 μl of a 33 μM solution) diluted 10-fold in dilution buffer (10 mM Tris.HCl, pH7.5/750 mM NaCl/10% glycerol/1 mM β-mercaptoethanol) and another 10-fold in buffer B, was injected at a final concentration of 330 nM with a flow rate of 10 μl/minute passing first a blank channel and then the channel with the specific oligonucleotide. A specific adsorption in the blank channel was subtracted.

**Q.** What does the source list for `O=[N+]([O-])c1ccc(C2c3c(O)nc(S)nc3Oc3nc(S)nc(O)c32)cc1` [compound H, 5-(4-nitrophenyl)-2,8-dithiol-4,6-dihydroxy-5H-pyrano[2,3-d:6,5-d′]dipyrimidine]?
**A.** fold increase in EC50 (HIV-1 L6): 2.8; EC50 (HIV-1(IIIB); Human immunodeficiency virus 1, IIIB, MT4, 120 h): 11.4 µM; EC50 (HIV-1(IIIB)): 8.9 ± 0.7 µM; activity against the replication of HIV-1(IIIB) (HIV-1(IIIB); in words): active; EC50 (HIV-2 (EHO)): 3.7 ± 0.1 µM; EC50 (HIV-1 NL43/DS5000; Human immunodeficiency virus 1, NL43): 19.4 ± 1.4 µM; fold increase in EC50 (HIV-1 NL43/DS5000; NL43/DS5000 versus wild type strain NL4.3): 1.3; activity against HIV-1 strain resistant to dextran sulfate (HIV-1 NL43/DS5000; in words): active; EC50 [1]: 17 µM; CC50 at 5 days [2]: 121 µM; binding of integrase to the DNA (HIV-1 integrase): completely abolished
